Reference: patent publication US20240287138A1, “CYCLIC PEPTIDES FOR INHIBITING TNF RECEPTOR 1 ACTIVITY” (Merck Sharp & Dohme LLC, priority 2023, published 2024)
Numbered stars: 1 amine (or outer) side, 2 acyl side, 3 side chain; on linkers, the order of the positions; unused ones are H or OH. Bridge positions count the residues as written; N and C are the ends. Square brackets hold non-standard residues; d marks the D form. Peptide text beside a SMILES is read from it. Trp(βS-Me,7-OMe) = COc1cccc2c([C@H](C)[C@H](N)C(=O)O)c[nH]c12; X49 = C[N+](C)(C)CC(=O)N[C@H]1C[C@H](C(=O)[*:2])N([*:1])C1; Trp(1-CH2COOH) = N[C@@H](Cc1cn(CC(=O)O)c2ccccc12)C(=O)O; Trp(7-CN) = N#Cc1cccc2c(C[C@H](N)C(=O)O)c[nH]c12; Trp(7-Cl) = N[C@@H](Cc1c[nH]c2c(Cl)cccc12)C(=O)O; Phe(3-CONH2) = NC(=O)c1cccc(C[C@H](N)C(=O)O)c1; Phe(4-CONH2) = NC(=O)c1ccc(C[C@H](N)C(=O)O)cc1; Phe(4-COOH) = N[C@@H](Cc1ccc(C(=O)O)cc1)C(=O)O; Ala(thiazol-5-yl) = N[C@@H](Cc1cncs1)C(=O)O; X1 = O=C([C@@H]1CC[C@H](N[*:1])C1)[*:2]; Pip(4-aza) = O=C(O)[C@@H]1CNCCN1; 4Pal = N[C@@H](Cc1ccncc1)C(=O)O; NMeE = CN[C@@H](CCC(=O)O)C(=O)O; hLeu = CC(C)CC[C@H](N)C(=O)O; NMeS = CN[C@@H](CO)C(=O)O; αMeS = C[C@](N)(CO)C(=O)O; Nle = CCCC[C@H](N)C(=O)O; Sar = CNCC(=O)O

target: T1, TNFα-induced NF-κB signal transduction pathway (TNFR1 signaling) in THP-1 cells (Homo sapiens, UniProt P19438); assay: THP-1 Lucia NF-κB reporter cell assay, inhibition of TNFα-induced NF-κB signaling; format: cell-based; settings: THP-1 NF-κB Lucia reporter cells, 10 ng/mL TNFα, 16-18 h, secreted luciferase; read-out: THP-1 IC50
T1 sequence (P19438 30-455): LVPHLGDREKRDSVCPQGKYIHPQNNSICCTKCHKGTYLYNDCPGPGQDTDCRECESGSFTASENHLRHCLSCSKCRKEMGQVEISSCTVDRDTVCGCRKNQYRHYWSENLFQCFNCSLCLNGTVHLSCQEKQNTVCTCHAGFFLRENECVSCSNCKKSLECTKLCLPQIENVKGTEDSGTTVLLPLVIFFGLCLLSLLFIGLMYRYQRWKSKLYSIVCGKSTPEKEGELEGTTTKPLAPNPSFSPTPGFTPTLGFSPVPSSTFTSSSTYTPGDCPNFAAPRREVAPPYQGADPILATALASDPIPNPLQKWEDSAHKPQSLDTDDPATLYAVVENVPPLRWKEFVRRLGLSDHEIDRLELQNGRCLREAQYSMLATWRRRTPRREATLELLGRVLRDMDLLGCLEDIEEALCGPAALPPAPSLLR
Description: C. Procedure for THP-1 Lucia NF-κB cells
The inhibition of TNFα-induced NF-κB signal transduction pathways was evaluated in THP-1 cells. THP-1 cells harboring NF-κB-inducible Lucia™ reporter gene (InvivoGen, cat. #thp1-nfkb) designed for monitoring NF-κB signal transduction pathway was employed to assess the inhibitory effect macrocyclic peptides on TNFR1 signaling. The cells were cultured in media containing RPMI 1640, 2 mM L-glutamine, 25 mM HEPES, 10% heat-inactivated fetal bovine serum with appropriate selection antibiotics. Assays were performed in media that was devoid of selection antibiotics. For profiling, 125 nL of peptides in DMSO (10 mM) were dispensed into Falcon® 384-well Optilux white/clear flat bottom TC-treated microtest microplate (Corning, cat. #353963) using Echo® 555. […] A suspension of 1 million cells/mL was dispensed at 20 μL/well in a 384-well plate to a density of 20,000 cells/well and pre-incubated with peptides at 37° C. for 1 h. Subsequently, 5 μL of TNF containing media (recombinant human TNFα; R&D Systems USA, cat. #210-TA-005/CF) or TNF-free media (for controls) was added to the wells. The final concentration of TNFα in the assay in 10 ng/mL. After o.n. incubation at 37° C. (16-18 h), 5 μL of supernatant was aspirated and transferred to a 384-well microplate (PerkinElmer, cat. #6007680) for measurement of secreted luciferase activity with 25 μL of QUANTI-Luc™ luminescence assay reagent (InvivoGen, cat. #rep-qlc1) in each well. The luminescence was measured in EnVision® Multimode Plate Reader (PerkinElmer). Dose response curves were analyzed using a 4-parameter logistic model to calculate IC50 values, reported in Table 2, using TIBCO® Spotfire® software employing appropriate Minimum and Maximum controls.

Structure (SMILES) | IC50 [nM]
COc1cccc2c([C@H](C)[C@@H]3NC(=O)CN(C)C(=O)[C@H](Cc4ccc(O)cc4)NC(=O)[C@H](Cc4ccc(C(=O)O)cc4)NC(=O)[C@](C)(CO)NC(=O)[C@H](Cc4c[nH]c5c(Cl)cccc45)NC(=O)[C@H](Cc4ccncc4)NC(=O)[C@H](CC(N)=O)NC(=O)[C@H](CCC(=O)O)N(C)C(=O)[C@H](Cc4c[nH]c5ccccc45)NC(=O)[C@@H]4CNCCN4C(=O)[C@H](Cc4ccncc4)NC(=O)[C@H](CCC(C)C)NC(=O)[C@@H]4CC[C@@H](C4)NC3=O)c[nH]c12 [SEQ ID NO. 137] (cyclo([4Pal][Trp(7-Cl)][αMeS][Phe(4-COOH)]Y[Sar][Trp(βS-Me,7-OMe)][X1][hLeu][4Pal][Pip(4-aza)]W[NMeE]N)) | 1.3
CCCC[C@@H]1NC(=O)[C@@H]2CC[C@@H](C2)NC(=O)[C@H]([C@@H](C)c2c[nH]c3c(OC)cccc23)NC(=O)CN(C)C(=O)[C@H](Cc2ccc(O)cc2)NC(=O)[C@H](Cc2ccc(C(=O)O)cc2)NC(=O)[C@](C)(CO)NC(=O)[C@H](Cc2c[nH]c3c(Cl)cccc23)NC(=O)[C@H](Cc2cncs2)NC(=O)[C@H](CC(N)=O)NC(=O)[C@H](CCC(=O)O)N(C)C(=O)[C@H](Cc2c[nH]c3ccccc23)NC(=O)[C@@H]2CNCCN2C(=O)[C@H](Cc2ccncc2)NC1=O [SEQ ID NO. 138] (cyclo([4Pal][Pip(4-aza)]W[NMeE]N[Ala(thiazol-5-yl)][Trp(7-Cl)][αMeS][Phe(4-COOH)]Y[Sar][Trp(βS-Me,7-OMe)][X1][Nle])) | 2
CCCC[C@@H]1NC(=O)[C@@H]2CC[C@@H](C2)NC(=O)[C@H]([C@@H](C)c2c[nH]c3c(OC)cccc23)NC(=O)CN(C)C(=O)[C@H](Cc2ccc(C(=O)O)cc2)NC(=O)[C@H](Cc2ccc(C(N)=O)cc2)NC(=O)[C@](C)(CO)NC(=O)[C@H](Cc2c[nH]c3c(C#N)cccc23)NC(=O)[C@H](Cc2ccc(C(=O)O)cc2)NC(=O)[C@H](CC(N)=O)NC(=O)[C@H]2C[C@H](NC(=O)C[N+](C)(C)C)CN2C(=O)[C@H](Cc2cn(CC(=O)O)c3ccccc23)NC(=O)[C@@H]2CNCCN2C(=O)[C@H](Cc2ccncc2)NC1=O [SEQ ID NO. 139] (cyclo([4Pal][Pip(4-aza)][Trp(1-CH2COOH)][X49]N[Phe(4-COOH)][Trp(7-CN)][αMeS][Phe(4-CONH2)][Phe(4-COOH)][Sar][Trp(βS-Me,7-OMe)][X1][Nle])) | 1
CCCC[C@@H]1NC(=O)CSC[C@@H](C(N)=O)NC(=O)[C@H]([C@@H](C)c2c[nH]c3c(OC)cccc23)NC(=O)CN(C)C(=O)[C@H](Cc2cccc(C(N)=O)c2)NC(=O)[C@H](Cc2ccc(C(=O)O)cc2)NC(=O)[C@](C)(CO)NC(=O)[C@H](Cc2c[nH]c3c(Cl)cccc23)NC(=O)[C@H](Cc2ccncc2)NC(=O)[C@H](CC(N)=O)NC(=O)[C@H](CCC(=O)O)N(C)C(=O)[C@H](Cc2c[nH]c3ccccc23)NC(=O)[C@H](CO)N(C)C(=O)[C@H](Cc2ccncc2)NC1=O [SEQ ID NO. 270] ({CH2CO}-[Nle][4Pal][NMeS]W[NMeE]N[4Pal][Trp(7-Cl)][αMeS][Phe(4-COOH)][Phe(3-CONH2)][Sar][Trp(βS-Me,7-OMe)]C-NH2; thioether N-14) | 2.2
